Reference: ChEMBL document CHEMBL5523746, “Discovery of Novel Peptide Antagonists Targeting GPR55 for Liver Inflammation and Fibrosis” (2024)
Bridge positions count the residues as written; N and C are the ends. Peptide text beside a SMILES is read from it.

Experiments:
LX-2 [1] = test: Anti-fibrotic activity in human LX2 cells assessed as reduction in […] expression by measuring relative inhibition rate measured after 24 hrs incubation by Western blot analysis relative to control; assay type: functional; design: concentration or dose not given beside the values
LX-2 [2] = test: Anti-fibrotic activity in human LX2 cells assessed as reduction in COL1alpha expression by measuring relative inhibition rate measured after 24 hrs incubation by Western blot analysis relative to control; assay type: functional; design: concentration or dose not given beside the values

Work on CC(C)C[C@@H]1NC(=O)[C@H]([C@@H](C)O)NC(=O)[C@@H]2CCCN2C(=O)[C@H](CO)NC(=O)[C@H](CC(N)=O)NC(=O)[C@H](CCCCN)NC(=O)[C@H](C)NC(=O)[C@@H](N)CSSC[C@@H](C(=O)O)NC1=O (H-CAKNSPTLC-OH; disulfide 1-9) yielded an Activity (LX-2 [1]) of 76.4% and an Activity (LX-2 [2]) of 90.3%.

With CC(C)C[C@@H]1NC(=O)[C@H]([C@@H](C)O)NC(=O)[C@@H]2CCCN2C(=O)[C@H](CO)NC(=O)[C@H](CC(N)=O)NC(=O)[C@H](C)NC(=O)[C@H](CCCCN)NC(=O)[C@@H](N)CSSC[C@@H](C(=O)O)NC1=O (H-CKANSPTLC-OH; disulfide 1-9) the Activity (LX-2 [1]) was 88.9% and the Activity (LX-2 [2]) was 139.1%.

With CC(C)C[C@@H]1NC(=O)[C@H]([C@@H](C)O)NC(=O)[C@@H]2CCCN2C(=O)[C@H](CO)NC(=O)[C@H](C)NC(=O)[C@H](CCCCN)NC(=O)[C@H](CCCCN)NC(=O)[C@@H](N)CSSC[C@@H](C(=O)O)NC1=O (H-CKKASPTLC-OH; disulfide 1-9) the Activity (LX-2 [1]) was 87.7% and the Activity (LX-2 [2]) was 132.9%.

Compound CC(C)C[C@@H]1NC(=O)[C@H]([C@@H](C)O)NC(=O)[C@@H]2CCCN2C(=O)[C@H](CO)NC(=O)[C@H](CC(=O)O)NC(=O)[C@H](CCCCN)NC(=O)[C@H](CCCCN)NC(=O)[C@@H](N)CSSC[C@@H](C(=O)O)NC1=O (H-CKKDSPTLC-OH; disulfide 1-9) has an Activity (LX-2 [1]) of 82.4% and an Activity (LX-2 [2]) of 64.7%.

Work on CC(C)C[C@@H]1NC(=O)[C@H]([C@@H](C)O)NC(=O)[C@@H]2CCCN2C(=O)[C@H](C)NC(=O)[C@H](CC(N)=O)NC(=O)[C@H](CCCCN)NC(=O)[C@H](CCCCN)NC(=O)[C@@H](N)CSSC[C@@H](C(=O)O)NC1=O (H-CKKNAPTLC-OH; disulfide 1-9) yielded an Activity (LX-2 [1]) of 74.5% and an Activity (LX-2 [2]) of 99.4%.

Work on CC(C)C[C@@H]1NC(=O)[C@H]([C@@H](C)O)NC(=O)[C@H](C)NC(=O)[C@H](CO)NC(=O)[C@H](CC(N)=O)NC(=O)[C@H](CCCCN)NC(=O)[C@H](CCCCN)NC(=O)[C@@H](N)CSSC[C@@H](C(=O)O)NC1=O (H-CKKNSATLC-OH; disulfide 1-9) yielded an Activity (LX-2 [1]) of 91.8% and an Activity (LX-2 [2]) of 140.1%.

CC(C)C[C@@H]1NC(=O)[C@H](CO)NC(=O)[C@H](CC(N)=O)NC(=O)[C@H](CCCCN)NC(=O)[C@H](CCCCN)NC(=O)[C@@H](N)CSSC[C@@H](C(=O)O)NC(=O)[C@H](CC(C)C)NC(=O)[C@H]([C@@H](C)O)NC1=O (H-CKKNSLTLC-OH; disulfide 1-9) gave an Activity (LX-2 [1]) of 68.9% and an Activity (LX-2 [2]) of 66.1%.

Compound CC(C)C[C@@H]1NC(=O)[C@H](C)NC(=O)[C@@H]2CCCN2C(=O)[C@H](CO)NC(=O)[C@H](CC(N)=O)NC(=O)[C@H](CCCCN)NC(=O)[C@H](CCCCN)NC(=O)[C@@H](N)CSSC[C@@H](C(=O)O)NC1=O (H-CKKNSPALC-OH; disulfide 1-9) has an Activity (LX-2 [1]) of 61.2% and an Activity (LX-2 [2]) of 79.7%.

CC(C)C[C@@H]1NC(=O)[C@H](CCC(=O)O)NC(=O)[C@@H]2CCCN2C(=O)[C@H](CO)NC(=O)[C@H](CC(N)=O)NC(=O)[C@H](CCCCN)NC(=O)[C@H](CCCCN)NC(=O)[C@@H](N)CSSC[C@@H](C(=O)O)NC1=O (H-CKKNSPELC-OH; disulfide 1-9) showed an Activity (LX-2 [1]) of 82.9% and an Activity (LX-2 [2]) of 59.2%.

Work on CC(C)C[C@@H]1NC(=O)[C@H](CCCNC(=N)N)NC(=O)[C@@H]2CCCN2C(=O)[C@H](CO)NC(=O)[C@H](CC(N)=O)NC(=O)[C@H](CCCCN)NC(=O)[C@H](CCCCN)NC(=O)[C@@H](N)CSSC[C@@H](C(=O)O)NC1=O (H-CKKNSPRLC-OH; disulfide 1-9) yielded an Activity (LX-2 [1]) of 92.6% and an Activity (LX-2 [2]) of 76.7%.

CC(C)C[C@@H]1NC(=O)[C@H](CO)NC(=O)[C@@H]2CCCN2C(=O)[C@H](CO)NC(=O)[C@H](CC(N)=O)NC(=O)[C@H](CCCCN)NC(=O)[C@H](CCCCN)NC(=O)[C@@H](N)CSSC[C@@H](C(=O)O)NC1=O (H-CKKNSPSLC-OH; disulfide 1-9) gave an Activity (LX-2 [1]) of 93.8% and an Activity (LX-2 [2]) of 69.4%.

With C[C@@H]1NC(=O)[C@H]([C@@H](C)O)NC(=O)[C@@H]2CCCN2C(=O)[C@H](CO)NC(=O)[C@H](CC(N)=O)NC(=O)[C@H](CCCCN)NC(=O)[C@H](CCCCN)NC(=O)[C@@H](N)CSSC[C@@H](C(=O)O)NC1=O (H-CKKNSPTAC-OH; disulfide 1-9) the Activity (LX-2 [2]) was 74.1%.

Compound C[C@@H](O)[C@@H]1NC(=O)[C@@H]2CCCN2C(=O)[C@H](CO)NC(=O)[C@H](CC(N)=O)NC(=O)[C@H](CCCCN)NC(=O)[C@H](CCCCN)NC(=O)[C@@H](N)CSSC[C@@H](C(=O)O)NC(=O)[C@H](Cc2c[nH]cn2)NC1=O (H-CKKNSPTHC-OH; disulfide 1-9) has an Activity (LX-2 [1]) of 71.5% and an Activity (LX-2 [2]) of 62.6%.

Compound CC(C)C[C@@H]1NC(=O)[C@H]([C@@H](C)O)NC(=O)[C@@H]2CCCN2C(=O)[C@H](CO)NC(=O)[C@H](CC(N)=O)NC(=O)[C@H](CCCCN)NC(=O)[C@H](CCCCN)NC(=O)[C@@H](N)CSSC[C@@H](C(=O)O)NC1=O (H-CKKNSPTLC-OH; disulfide 1-9) has an Activity (LX-2 [1]) of 66.4% and an Activity (LX-2 [2]) of 57.5%.

C[C@@H](O)[C@@H]1NC(=O)[C@@H]2CCCN2C(=O)[C@H](CO)NC(=O)[C@H](CC(N)=O)NC(=O)[C@H](CCCCN)NC(=O)[C@H](CCCCN)NC(=O)[C@@H](N)CSSC[C@@H](C(=O)O)NC(=O)[C@H](CCC(N)=O)NC1=O (H-CKKNSPTQC-OH; disulfide 1-9) showed an Activity (LX-2 [1]) of 82.3% and an Activity (LX-2 [2]) of 74.6%.

For C[C@@H](O)[C@@H]1NC(=O)[C@H]([C@@H](C)O)NC(=O)[C@@H]2CCCN2C(=O)[C@H](CO)NC(=O)[C@H](CC(N)=O)NC(=O)[C@H](CCCCN)NC(=O)[C@H](CCCCN)NC(=O)[C@@H](N)CSSC[C@@H](C(=O)O)NC1=O (H-CKKNSPTTC-OH; disulfide 1-9), the Activity (LX-2 [1]) was 84.9% and the Activity (LX-2 [2]) was 66.1%.

CC(C)C[C@@H]1NC(=O)[C@H]([C@@H](C)O)NC(=O)[C@@H]2CCCN2C(=O)[C@H]([C@@H](C)O)NC(=O)[C@H](CC(N)=O)NC(=O)[C@H](CCCCN)NC(=O)[C@H](CCCCN)NC(=O)[C@@H](N)CSSC[C@@H](C(=O)O)NC1=O (H-CKKNTPTLC-OH; disulfide 1-9) showed an Activity (LX-2 [1]) of 91.6% and an Activity (LX-2 [2]) of 85.7%.
